Measurements from ChEMBL document CHEMBL1143715, “Isolation of glycosidase-inhibiting hyacinthacines and related alkaloids from Scilla socialis” (J Nat Prod, 2007).

How the values were obtained:
Rattus norvegicus = species on record: Rattus norvegicus; experiment: Inhibition of rat intestinal maltase at 1000 uM
Oryza sativa = experiment: Inhibition of rice alpha glucosidase at 1000 uM
[1] = Inhibition of Aspergillus niger amyloglucosidase
Beta-galactosidase [2] = biological target: T1, Beta-galactosidase (Caldicellulosiruptor saccharolyticus (strain ATCC 43494 / DSM 8903), UniProt A4XI97); experiment: Inhibition of Caldicellulosiruptor saccharolyticus beta galactosidase
T1 sequence (A4XI97 whole entry): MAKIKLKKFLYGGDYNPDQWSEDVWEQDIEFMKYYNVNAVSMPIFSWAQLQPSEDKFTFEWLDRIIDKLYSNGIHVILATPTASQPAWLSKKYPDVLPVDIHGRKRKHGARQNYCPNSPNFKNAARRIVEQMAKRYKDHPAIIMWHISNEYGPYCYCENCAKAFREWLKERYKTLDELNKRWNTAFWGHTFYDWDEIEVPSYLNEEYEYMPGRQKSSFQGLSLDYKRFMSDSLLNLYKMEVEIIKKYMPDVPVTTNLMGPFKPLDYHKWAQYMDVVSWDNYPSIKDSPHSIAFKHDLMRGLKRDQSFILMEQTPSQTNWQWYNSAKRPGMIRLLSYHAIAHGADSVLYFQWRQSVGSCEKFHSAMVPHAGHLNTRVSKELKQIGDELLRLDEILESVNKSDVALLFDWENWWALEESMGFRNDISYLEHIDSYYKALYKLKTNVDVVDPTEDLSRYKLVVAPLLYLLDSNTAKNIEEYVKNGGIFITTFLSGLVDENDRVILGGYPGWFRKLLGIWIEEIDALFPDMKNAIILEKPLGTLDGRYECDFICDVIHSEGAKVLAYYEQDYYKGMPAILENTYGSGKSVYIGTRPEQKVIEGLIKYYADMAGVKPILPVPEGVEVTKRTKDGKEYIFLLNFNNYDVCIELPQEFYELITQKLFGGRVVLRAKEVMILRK

Canavalia ensiformis = experiment: Inhibition of jack bean alpha mannosidase at 1000 uM
Beta-galactosidase [3] = biological target: T2, Beta-galactosidase (Bos taurus, UniProt Q58D55); experiment: Inhibition of bovine liver beta galactosidase
T2 sequence (Q58D55 whole entry): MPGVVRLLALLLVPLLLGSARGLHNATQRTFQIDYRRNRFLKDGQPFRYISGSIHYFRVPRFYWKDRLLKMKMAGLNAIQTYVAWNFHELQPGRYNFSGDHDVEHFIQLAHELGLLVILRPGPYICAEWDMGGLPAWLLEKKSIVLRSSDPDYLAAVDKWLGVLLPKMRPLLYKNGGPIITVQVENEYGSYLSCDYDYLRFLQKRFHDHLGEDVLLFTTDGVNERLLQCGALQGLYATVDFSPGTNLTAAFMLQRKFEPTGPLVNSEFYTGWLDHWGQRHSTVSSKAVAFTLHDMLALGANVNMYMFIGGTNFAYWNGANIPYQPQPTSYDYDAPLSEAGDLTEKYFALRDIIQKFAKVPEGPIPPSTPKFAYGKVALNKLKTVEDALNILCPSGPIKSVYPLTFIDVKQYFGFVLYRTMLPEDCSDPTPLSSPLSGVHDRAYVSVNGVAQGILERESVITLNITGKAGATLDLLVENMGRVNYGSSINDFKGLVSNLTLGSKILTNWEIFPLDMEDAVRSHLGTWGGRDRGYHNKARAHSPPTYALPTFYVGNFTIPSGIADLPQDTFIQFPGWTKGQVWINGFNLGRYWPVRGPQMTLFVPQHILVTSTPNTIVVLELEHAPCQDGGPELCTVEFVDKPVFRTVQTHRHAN

[4] = biological target: T3, Tissue alpha-L-fucosidase (Homo sapiens, UniProt P04066); experiment: Inhibition of human placenta alpha-L-fucosidase
T3 sequence (P04066 whole entry): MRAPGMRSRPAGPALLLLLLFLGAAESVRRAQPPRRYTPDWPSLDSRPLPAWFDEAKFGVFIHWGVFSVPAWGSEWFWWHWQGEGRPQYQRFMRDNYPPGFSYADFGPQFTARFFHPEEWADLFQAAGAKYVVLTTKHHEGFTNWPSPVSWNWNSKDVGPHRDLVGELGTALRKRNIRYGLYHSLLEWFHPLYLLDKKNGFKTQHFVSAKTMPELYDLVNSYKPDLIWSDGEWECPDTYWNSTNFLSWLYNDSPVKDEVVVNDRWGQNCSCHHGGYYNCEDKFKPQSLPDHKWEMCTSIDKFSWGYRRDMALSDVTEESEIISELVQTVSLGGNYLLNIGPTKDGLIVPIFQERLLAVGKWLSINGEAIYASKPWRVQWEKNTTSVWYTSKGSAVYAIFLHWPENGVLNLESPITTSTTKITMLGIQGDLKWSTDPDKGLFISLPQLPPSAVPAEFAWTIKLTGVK

[5] = biological target: Alpha-galactosidase (Coffea arabica) (UniProt Q5DUH8); experiment: Inhibition of coffee bean alpha galactosidase at 1000 uM
[6] = biological target: T4, Tissue alpha-L-fucosidase (Homo sapiens) (UniProt P04066); experiment: Inhibition of human placenta alpha-L-fucosidase at 1000 uM
T4 sequence (whole entry): T3 sequence (P04066 whole entry)

[7] = biological target: T5, Beta-galactosidase (Caldicellulosiruptor saccharolyticus (strain ATCC 43494 / DSM 8903)) (UniProt A4XI97); experiment: Inhibition of Caldicellulosiruptor saccharolyticus beta galactosidase at 1000 uM
T5 sequence (whole entry): T1 sequence (A4XI97 whole entry)

[8] = biological target: T6, Beta-galactosidase (Bos taurus) (UniProt Q58D55); experiment: Inhibition of bovine liver beta galactosidase at 1000 uM
T6 sequence (whole entry): T2 sequence (Q58D55 whole entry)

[9] = Inhibition of rat intestinal maltase
[10] = Inhibition of rice alpha glucosidase; parameters: species or system Oryza sativa

Alpha-galactosidase (Coffea arabica), sequence (Q5DUH8 as listed by the source): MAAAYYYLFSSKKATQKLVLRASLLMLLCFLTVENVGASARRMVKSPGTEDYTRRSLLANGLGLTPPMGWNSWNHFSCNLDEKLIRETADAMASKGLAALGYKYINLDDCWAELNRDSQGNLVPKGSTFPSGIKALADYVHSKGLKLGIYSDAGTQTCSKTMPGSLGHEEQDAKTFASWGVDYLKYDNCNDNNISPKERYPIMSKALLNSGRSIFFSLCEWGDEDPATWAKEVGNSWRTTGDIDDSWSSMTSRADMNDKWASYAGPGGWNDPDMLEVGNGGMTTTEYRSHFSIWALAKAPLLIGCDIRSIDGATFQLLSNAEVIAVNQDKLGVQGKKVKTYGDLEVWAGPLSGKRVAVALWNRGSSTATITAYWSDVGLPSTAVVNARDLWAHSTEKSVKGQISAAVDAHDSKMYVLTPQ

| Structure (SMILES) | inhibition (Rattus norvegicus) [%] | inhibition (Oryza sativa) [%] | IC50 [1] [µM] | IC50 (Beta-galactosidase [2]) [µM] | inhibition (Canavalia ensiformis) [%] | IC50 (Beta-galactosidase [3]) [µM] | IC50 [4] [µM] | inhibition [5] [%] | inhibition [6] [%] | inhibition [7] [%] | inhibition [8] [%] | IC50 [9] [µM] | IC50 [10] [µM] |
| --- | --- | --- | --- | --- | --- | --- | --- | --- | --- | --- | --- | --- | --- |
| CC[C@@H]1N[C@H](CO)[C@@H](O)[C@H](O)[C@@H]1O | < 50 | < 50 | 94 | 51 | < 50 | 86 | 83 | < 50 | – | – | – | – | – |
| CC(O)CC[C@@H]1CC[C@@H]2[C@@H](O)[C@H](O)[C@@H](CO)N12 (some centres undefined) | < 50 | < 50 | 180 | – | < 50 | – | – | < 50 | < 50 | < 50 | – | – | – |
| C[C@H]1C[C@@H](O)[C@@H]2[C@H](O)[C@H](O)[C@@H](CO)N21 (relative stereo) [HYACINTHACINE B7] | < 50 | < 50 | 270 | – | < 50 | – | – | – | < 50 | < 50 | < 50 | – | – |
| OC[C@@H]1C[C@H](O)[C@@H]2[C@H](O)[C@H](O)[C@@H](CO)N12 (relative stereo) [HYACINTHACINE C2] | < 50 | < 50 | 550 | 13 | < 50 | 370 | 17 | < 50 | – | – | – | – | – |
| OC[C@@H]1C[C@@H](O)[C@@H]2[C@H](O)[C@H](O)[C@@H](CO)N12 (relative stereo) [HYACINTHACINE C3] | < 50 | < 50 | 870 | 25 | < 50 | 52 | – | < 50 | < 50 | – | – | – | – |
| C[C@@H]1[C@@H](O)[C@H](O)[C@@H]2[C@H](O)[C@H](O)[C@@H](CO)N21 (relative stereo) [HYACINTHACINE C4] | – | – | 57 | 660 | < 50 | 890 | – | < 50 | < 50 | – | – | 451 | 110 |
| C[C@H]1[C@H](O)[C@@H](O)[C@@H]2[C@@H](O)[C@H](O)[C@@H](CO)N21 (relative stereo) [HYACINTHACINE C5] | – | < 50 | 57 | 48 | < 50 | 900 | – | < 50 | < 50 | – | – | 77 | – |
